In patent US20050112573A1, “Method of detecting toxic substance” (priority 2001, published 2005):

System: yeast genes (level of expressed mRNA)
Assay: DNA chip analysis of expressed mRNA of yeast genes after 2 h culture with a toxic chemical substance
Type: cell-based, Saccharomyces cerevisiae S288C
Details: for The level of expressed mRNA in the presence of chemical substance/ (ratio to absence of chemical substance): stress protein genes, DNA chip
Method: Yeast (Saccharomyces cerevtisiae S288C (α SUC2mal mel gap2 CUP1)) were cultured at 25° C. on YPD medium (yeast extract 1%, polypepton 2%, glucose 2%). One of toxic chemical substances was added to the cell at logarithmic growth phase, and the cell was further cultured for two hours. Cell was cultured without any chemical substance in the same condition, and was used as control. Concentrations of the chemical substances were defined to inhibit the growth of the yeast but not lead to death.
After the completion of cultivation, the culture was centrifuged to collect the cells. To the cells, sodium acetate buffer (50 mM sodium acetate, 10 mM EDTA, 1% SDS) was added, and the mixture was shaken at 65° C. for five minutes, followed by returning to room temperature, and obtaining the supernatant, which procedure was repeated two times. To the supernatant, ½ amount of a solution of phenol/chloroform was added, and the mixture was centrifuged to give a supernatant, which was added with an equal amount of chloroform, and the mixture was centrifuged to give a supernatant. To the supernatant, an equal amount of isopropanol containing 0.3 M sodium acetate was added, and the mixture was allowed to stand at room temperature for 30 minutes, after which the mixture was centrifuged to give a sediment of the whole RNAs. Seventy % ethanol was added to the sediment, and the mixture was again centrifuged to give a sediment, which was then dried and dissolved in water. mRNA was isolated from the whole RNAs as followings. In view of the fact that a poly A chain is attached to the 3′ terminus of mRNA, a polynucleotide having a poly T structure which was immobilized on the surface of latex beads was used to trap the mRNA, and then the mRNA was washed and eluted with spine column (Oligotex-dT30<Super>mRNA Purification Kit, Takara). Reverse transcription of the mRNA was conducted with a reverse transcriptase (Super Script II Reverse Transcriptase; catalogue No. 18064-014, GibcoBRL) using fluorescence-labeled nucleotides to give cDNAs that were introduced with Cy3-dUTP or Cy5-dUTP during the reverse transcription.
The labeled cDNAs were dissolved in TE buffer (10 mM Tris-HCl/1 mM EDTA, pH8.0), and the solution was dropped on the DNA chip containing the whole genes of yeast (DNA Chip Research Inc. Japan) so that the cDNAs were hybridized on the DNA chip at 65° C. for over 12 hours. The fluoresces intensity of the DNA chip was read with a scanner, and the ratio relative to the fluorescence intensity resulting from the absence of chemical substance was estimated as the following, which is shown in Tables 1 to 9: [formula]
In the Tables, “Intensity” indicated in the rightmost column is a value of the level of expressed mRNA of each gene in control cells as divided by the average level of the expressions of the whole genes.

## S=C([S-])NCCNC(=S)[S-].[Zn+2] [(11), zinc N,N′-ethylenebis(dithiocarbamate)]
Yeast gene YIL123W
  The level of expressed mRNA in the presence of chemical substance/The level of expressed mRNA in the absence of chemical substance: 1.2
Yeast gene YIL140W
  The level of expressed mRNA in the presence of chemical substance/The level of expressed mRNA in the absence of chemical substance: 0.9
Yeast gene YJL070C, ratio of DNA chip fluorescence intensity to that without chemical substance
  The level of expressed mRNA in the presence of chemical substance/ (in its absence), gene YJL070C: 1.3
Yeast gene YJL073W
  The level of expressed mRNA in the presence of chemical substance/The level of expressed mRNA in the absence of chemical substance: 0.5
Yeast gene YJL089W
  The level of expressed mRNA in the presence of chemical substance/The level of expressed mRNA in the absence of chemical substance: 0.6
Yeast gene YJL096W, mitochondria-located protein genes, 2 h culture with chemical
  The level of expressed mRNA in the presence of chemical substance/ (ratio to absence), gene YJL096W: 1.2
Yeast gene YJL116C
  The level of expressed mRNA in the presence of chemical substance/The level of expressed mRNA in the absence of chemical substance: 2.9
Yeast gene YJL158C
  The level of expressed mRNA in the presence of chemical substance/ (ratio to absence of chemical substance): 1.9
Yeast gene YJL167W, ratio of DNA chip fluorescence intensity to that without chemical substance
  The level of expressed mRNA in the presence of chemical substance/ (in its absence), gene YJL167W: 1.2
Yeast gene YJL180C, mitochondria-located protein genes, 2 h culture with chemical
  The level of expressed mRNA in the presence of chemical substance/ (ratio to absence), gene YJL180C: 1.4
Yeast gene YJL216C, ratio of DNA chip fluorescence intensity to that without chemical substance
  The level of expressed mRNA in the presence of chemical substance/ (in its absence), gene YJL216C: 1.1
Yeast gene YJR004C
  The level of expressed mRNA in the presence of chemical substance/The level of expressed mRNA in the absence of chemical substance: 0.7
Yeast gene YJR086W
  The level of expressed mRNA in the presence of chemical substance/The level of expressed mRNA in the absence of chemical substance: 1.0
Yeast gene YJR090C
  The level of expressed mRNA in the presence of chemical substance/ (ratio to absence of chemical substance): 0.4
Yeast gene YKL008C
  The level of expressed mRNA in the presence of chemical substance/The level of expressed mRNA in the absence of chemical substance: 1.5
Yeast gene YKL013C
  The level of expressed mRNA in the presence of chemical substance/The level of expressed mRNA in the absence of chemical substance: 1.1
Yeast gene YKL039W
  The level of expressed mRNA in the presence of chemical substance/The level of expressed mRNA in the absence of chemical substance: 1.0
Yeast gene YKL041W
  The level of expressed mRNA in the presence of chemical substance/The level of expressed mRNA in the absence of chemical substance: 1.2
Yeast gene YKL096W
  The level of expressed mRNA in the presence of chemical substance/The level of expressed mRNA in the absence of chemical substance: 3.5
Yeast gene YKL139W
  The level of expressed mRNA in the presence of chemical substance/The level of expressed mRNA in the absence of chemical substance: 1.4
Yeast gene YKL164C
  The level of expressed mRNA in the presence of chemical substance/ (ratio to absence of chemical substance): 1.0
Yeast gene YKL165C
  The level of expressed mRNA in the presence of chemical substance/The level of expressed mRNA in the absence of chemical substance: 0.3
Yeast gene YKL193C
  The level of expressed mRNA in the presence of chemical substance/The level of expressed mRNA in the absence of chemical substance: 1.7
Yeast gene YKR009C, ratio of DNA chip fluorescence intensity to that without chemical substance
  The level of expressed mRNA in the presence of chemical substance/ (in its absence), gene YKR009C: 1.2
Yeast gene YKR034W, ratio of DNA chip fluorescence intensity to that without chemical substance
  The level of expressed mRNA in the presence of chemical substance/ (in its absence), gene YKR034W: 0.0
Yeast gene YKR053C
  The level of expressed mRNA in the presence of chemical substance/ (ratio to absence of chemical substance): 0.5
Yeast gene YKR058W, energy system protein genes, 2 h culture with the chemical, ratio to control without chemical
  The level of expressed mRNA in the presence of chemical substance/ in its absence, gene YKR058W: 1.5
Yeast gene YLR006C, ratio of DNA chip fluorescence intensity to that without chemical substance
  The level of expressed mRNA in the presence of chemical substance/ (in its absence), gene YLR006C: 1.5
Yeast gene YLR006C
  The level of expressed mRNA in the presence of chemical substance/ (ratio to absence of chemical substance): 1.5
Yeast gene YLR120C
  The level of expressed mRNA in the presence of chemical substance/The level of expressed mRNA in the absence of chemical substance: 1.2
Yeast gene YLR136C
  The level of expressed mRNA in the presence of chemical substance/The level of expressed mRNA in the absence of chemical substance: 1.2
Yeast gene YLR178C
  The level of expressed mRNA in the presence of chemical substance/The level of expressed mRNA in the absence of chemical substance: 3.7
Yeast gene YLR250W
  The level of expressed mRNA in the presence of chemical substance/The level of expressed mRNA in the absence of chemical substance: 1.4
Yeast gene YLR295C, energy system protein genes, 2 h culture with the chemical, ratio to control without chemical
  The level of expressed mRNA in the presence of chemical substance/ in its absence, gene YLR295C: 1.3
Yeast gene YLR295C, mitochondria-located protein genes, 2 h culture with chemical
  The level of expressed mRNA in the presence of chemical substance/ (ratio to absence), gene YLR295C: 1.3
Yeast gene YLR327C
  The level of expressed mRNA in the presence of chemical substance/The level of expressed mRNA in the absence of chemical substance: 5.0
Yeast gene YLR351C, ratio of DNA chip fluorescence intensity to that without chemical substance
  The level of expressed mRNA in the presence of chemical substance/ (in its absence), gene YLR351C: 1.1
Yeast gene YLR356W
  The level of expressed mRNA in the presence of chemical substance/The level of expressed mRNA in the absence of chemical substance: 3.1
Yeast gene YLR362W
  The level of expressed mRNA in the presence of chemical substance/The level of expressed mRNA in the absence of chemical substance: 1.5
Yeast gene YLR375W, ratio of DNA chip fluorescence intensity to that without chemical substance
  The level of expressed mRNA in the presence of chemical substance/ (in its absence), gene YLR375W: 1.6
Yeast gene YLR391W
  The level of expressed mRNA in the presence of chemical substance/The level of expressed mRNA in the absence of chemical substance: 1.4
Yeast gene YLR429W
  The level of expressed mRNA in the presence of chemical substance/The level of expressed mRNA in the absence of chemical substance: 0.9
Yeast gene YML129C, energy system protein genes, 2 h culture with the chemical, ratio to control without chemical
  The level of expressed mRNA in the presence of chemical substance/ in its absence, gene YML129C: 1.2
Yeast gene YML129C, mitochondria-located protein genes, 2 h culture with chemical
  The level of expressed mRNA in the presence of chemical substance/ (ratio to absence), gene YML129C: 1.2
Yeast gene YMR004W
  The level of expressed mRNA in the presence of chemical substance/The level of expressed mRNA in the absence of chemical substance: 2.5
Yeast gene YMR023C, mitochondria-located protein genes, 2 h culture with chemical
  The level of expressed mRNA in the presence of chemical substance/ (ratio to absence), gene YMR023C: 0.8
Yeast gene YMR094W
  The level of expressed mRNA in the presence of chemical substance/The level of expressed mRNA in the absence of chemical substance: 1.0
Yeast gene YMR104C
  The level of expressed mRNA in the presence of chemical substance/The level of expressed mRNA in the absence of chemical substance: 1.1
Yeast gene YMR186W
  The level of expressed mRNA in the presence of chemical substance/ (ratio to absence of chemical substance): 1.1
Yeast gene YMR219W
  The level of expressed mRNA in the presence of chemical substance/The level of expressed mRNA in the absence of chemical substance: 1.5
Yeast gene YMR226C
  The level of expressed mRNA in the presence of chemical substance/The level of expressed mRNA in the absence of chemical substance: 1.4
Yeast gene YMR267W, energy system protein genes, 2 h culture with the chemical, ratio to control without chemical
  The level of expressed mRNA in the presence of chemical substance/ in its absence, gene YMR267W: 1.0
Yeast gene YMR267W, mitochondria-located protein genes, 2 h culture with chemical
  The level of expressed mRNA in the presence of chemical substance/ (ratio to absence), gene YMR267W: 1.0
Yeast gene YMR267W, ratio of DNA chip fluorescence intensity to that without chemical substance
  The level of expressed mRNA in the presence of chemical substance/ in its absence, gene YMR267W: 1.0
Yeast gene YMR275C
  The level of expressed mRNA in the presence of chemical substance/The level of expressed mRNA in the absence of chemical substance: 1.1
Yeast gene YMR276W
  The level of expressed mRNA in the presence of chemical substance/The level of expressed mRNA in the absence of chemical substance: 1.9
Yeast gene YMR278W, ratio of DNA chip fluorescence intensity to that without chemical substance
  The level of expressed mRNA in the presence of chemical substance/ (in its absence), gene YMR278W: 1.1
